From ChEMBL document CHEMBL1131225, “Macrocyclic amino carboxylates as selective MMP-8 inhibitors” (J Med Chem, 1998)

Key:
Stromelysin-1 = Stromelysin-1 (Homo sapiens, UniProt P08254); experiment: Inhibition of Matrix metalloprotease-3
Neutrophil collagenase = Neutrophil collagenase (Homo sapiens, UniProt P22894); experiment: Inhibition of Matrix metalloprotease-8
[1] = target: 72 kDa type IV collagenase (Homo sapiens, UniProt P08253); experiment: Inhibition of Matrix metalloprotease-2
[2] = target: Matrix metalloproteinase-9 (Homo sapiens, UniProt P14780); experiment: Inhibition of Matrix metalloprotease-9
Sequence of Matrix metalloproteinase-9 (P14780 whole entry): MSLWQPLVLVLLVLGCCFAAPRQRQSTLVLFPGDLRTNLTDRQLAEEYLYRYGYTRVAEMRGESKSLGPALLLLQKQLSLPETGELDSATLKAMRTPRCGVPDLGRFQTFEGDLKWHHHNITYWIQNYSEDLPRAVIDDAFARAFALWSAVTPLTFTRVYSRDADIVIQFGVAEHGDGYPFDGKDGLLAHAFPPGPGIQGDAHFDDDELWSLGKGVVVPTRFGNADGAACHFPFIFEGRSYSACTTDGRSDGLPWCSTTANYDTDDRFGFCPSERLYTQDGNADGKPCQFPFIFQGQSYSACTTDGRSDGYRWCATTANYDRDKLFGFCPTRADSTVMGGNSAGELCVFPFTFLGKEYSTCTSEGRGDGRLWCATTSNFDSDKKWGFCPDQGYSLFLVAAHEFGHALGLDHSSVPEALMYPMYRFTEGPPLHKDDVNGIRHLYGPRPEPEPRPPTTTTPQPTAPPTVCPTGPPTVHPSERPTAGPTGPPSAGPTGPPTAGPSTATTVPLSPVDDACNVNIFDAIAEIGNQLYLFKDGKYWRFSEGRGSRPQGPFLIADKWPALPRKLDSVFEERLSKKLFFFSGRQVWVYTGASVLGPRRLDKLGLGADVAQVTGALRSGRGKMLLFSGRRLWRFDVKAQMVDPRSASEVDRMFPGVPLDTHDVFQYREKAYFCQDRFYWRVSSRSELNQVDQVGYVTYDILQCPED

Interstitial collagenase = target: T1, Interstitial collagenase (Homo sapiens, UniProt P03956); experiment: Inhibition of Matrix metalloprotease-1
T1 sequence (P03956 whole entry): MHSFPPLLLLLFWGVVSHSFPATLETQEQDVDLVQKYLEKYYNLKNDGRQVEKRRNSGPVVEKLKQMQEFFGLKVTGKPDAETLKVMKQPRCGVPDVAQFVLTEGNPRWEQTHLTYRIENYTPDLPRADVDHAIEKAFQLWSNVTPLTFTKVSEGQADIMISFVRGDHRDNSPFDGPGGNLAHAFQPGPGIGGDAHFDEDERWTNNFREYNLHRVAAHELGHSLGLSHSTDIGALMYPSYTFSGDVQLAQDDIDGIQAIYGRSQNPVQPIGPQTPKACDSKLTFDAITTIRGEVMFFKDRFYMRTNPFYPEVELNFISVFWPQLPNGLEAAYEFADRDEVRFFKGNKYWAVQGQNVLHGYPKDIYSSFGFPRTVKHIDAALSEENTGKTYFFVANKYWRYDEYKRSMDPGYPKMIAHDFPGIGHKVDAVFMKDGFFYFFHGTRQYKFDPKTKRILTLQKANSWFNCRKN

Sequence of Neutrophil collagenase (P22894 whole entry): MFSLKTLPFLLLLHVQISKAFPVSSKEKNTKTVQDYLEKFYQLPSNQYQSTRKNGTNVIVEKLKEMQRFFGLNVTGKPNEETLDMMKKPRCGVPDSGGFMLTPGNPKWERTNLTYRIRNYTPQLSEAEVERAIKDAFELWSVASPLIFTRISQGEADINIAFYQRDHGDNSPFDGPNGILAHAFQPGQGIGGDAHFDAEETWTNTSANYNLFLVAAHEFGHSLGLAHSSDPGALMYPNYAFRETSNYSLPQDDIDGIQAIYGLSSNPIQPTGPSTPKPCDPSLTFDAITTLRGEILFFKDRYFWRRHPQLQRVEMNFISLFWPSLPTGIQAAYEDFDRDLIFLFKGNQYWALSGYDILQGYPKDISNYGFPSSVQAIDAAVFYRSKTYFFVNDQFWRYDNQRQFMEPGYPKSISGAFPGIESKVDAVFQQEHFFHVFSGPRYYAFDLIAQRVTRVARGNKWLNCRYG
Sequence of Stromelysin-1 (P08254 whole entry): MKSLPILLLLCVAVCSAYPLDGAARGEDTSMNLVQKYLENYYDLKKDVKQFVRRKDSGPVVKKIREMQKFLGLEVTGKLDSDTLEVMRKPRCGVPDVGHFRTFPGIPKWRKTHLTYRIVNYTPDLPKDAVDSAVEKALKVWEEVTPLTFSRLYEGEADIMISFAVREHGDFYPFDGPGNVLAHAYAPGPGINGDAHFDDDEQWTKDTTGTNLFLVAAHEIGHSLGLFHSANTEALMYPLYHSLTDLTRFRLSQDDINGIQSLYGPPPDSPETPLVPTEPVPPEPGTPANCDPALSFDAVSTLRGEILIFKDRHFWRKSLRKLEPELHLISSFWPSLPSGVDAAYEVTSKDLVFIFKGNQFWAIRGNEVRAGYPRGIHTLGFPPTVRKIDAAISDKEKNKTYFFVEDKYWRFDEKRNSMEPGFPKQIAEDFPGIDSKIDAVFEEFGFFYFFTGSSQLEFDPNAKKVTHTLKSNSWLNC
Sequence of 72 kDa type IV collagenase (P08253 whole entry): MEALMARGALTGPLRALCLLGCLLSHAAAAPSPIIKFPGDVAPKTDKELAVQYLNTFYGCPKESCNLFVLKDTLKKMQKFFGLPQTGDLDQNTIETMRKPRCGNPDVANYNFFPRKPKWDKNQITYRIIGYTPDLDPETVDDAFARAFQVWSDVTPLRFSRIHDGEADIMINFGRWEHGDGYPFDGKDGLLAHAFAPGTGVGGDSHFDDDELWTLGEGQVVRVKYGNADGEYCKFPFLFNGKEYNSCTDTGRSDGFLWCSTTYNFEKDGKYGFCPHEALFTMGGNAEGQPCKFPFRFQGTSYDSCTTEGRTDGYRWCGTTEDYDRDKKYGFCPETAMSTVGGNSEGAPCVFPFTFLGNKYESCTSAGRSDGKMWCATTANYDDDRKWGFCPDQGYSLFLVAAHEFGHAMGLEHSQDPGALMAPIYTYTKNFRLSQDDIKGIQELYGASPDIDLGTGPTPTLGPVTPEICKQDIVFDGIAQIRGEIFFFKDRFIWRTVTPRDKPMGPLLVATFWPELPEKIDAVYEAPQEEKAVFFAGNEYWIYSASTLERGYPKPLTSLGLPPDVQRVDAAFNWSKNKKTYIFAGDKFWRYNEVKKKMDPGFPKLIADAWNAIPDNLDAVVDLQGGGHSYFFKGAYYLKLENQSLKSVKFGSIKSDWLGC

Row | SMILES | Ki (Stromelysin-1) [µM] | Ki (Neutrophil collagenase) [µM] | Ki [1] [µM] | Ki [2] [µM] | Ki (Interstitial collagenase) [µM]
1 | CNC(=O)CC[C@@H](N[C@@H](CCc1ccccc1)C(=O)N[C@@H](CCCCNC(C)=O)C(=O)NC)C(=O)O | 14.1 | 0.293 | 1.53 | 0.404 | –
2 | CNC(=O)[C@@H]1CCCCNC(=O)CC[C@H](C(=O)O)N[C@@H](CCc2ccc(-c3ccccc3)cc2)C(=O)N1 | 2.4 | 0.009 | 0.249 | 0.288 | 1.45

Results, then the compound that gave them:

Row | Ki (Stromelysin-1) [µM] | Ki (Neutrophil collagenase) [µM] | Ki [1] [µM] | Ki [2] [µM] | Ki (Interstitial collagenase) [µM] | SMILES
3 | 13.5 | 0.017 | 8.1 | 6.6 | – | CNC(=O)[C@@H]1CCCCNC(=O)CC[C@H](C(=O)O)N[C@@H](CCc2ccccc2)C(=O)N1
4 | 35 | 0.531 | 2.4 | 9.8 | 0.9 | CNC(=O)[C@@H]1CCCCNC(=O)C[C@H](C(=O)O)N[C@@H](CCc2ccccc2)C(=O)N1
5 | 2.9 | 0.01 | 0.238 | 5.8 | 8.4 | CNC(=O)[C@@H]1CCC(=O)OCCNC(=O)CC[C@H](C(=O)O)N[C@@H](CCc2ccccc2)C(=O)N1
